According to US11648258B2, “Method and compounds for inhibiting the MCM complex and their application in cancer treatment” (priority 2012, dated 2023):
“Also recorded” adds a separate entry of the source. Where two headings read alike, the source gives them in different places.

Tests used:
[1] = test system: cancer cells (HeLa, HepG2); assay: Flow cytometry / Annexin V staining (cell cycle, apoptosis) in cancer cells; format: cell-based, human; settings: cancer cells
Method: Both floating and attached cells were collected and washed once with PBS. Cells were fixed in 70% ethanol for 1 hr to overnight at −20° C., washed thoroughly with PBS, and then stained in 50 μg/ml RNase A, 0.1% Triton X-100, 0.1 mM EDTA (pH 7.4), and 50 μg/ml propidium iodide for 30 min at 4° C. Samples were analyzed with the FACSort instrument (Becton Dickinson).
Moreover, inhibition of DNA replication and subsequent induction of apoptosis by 17beta-Deacetyltanghinin could be shown by flow cytometry. In FIG. 7. Hela cells were blocked at M phase by Nocodazole (Noc.; FIG. 7A), the G1/S transition by mimosine (MMS; FIG. 7B), or at early S phase by Hydroxyurea (HU; FIG. 7C) and then released into fresh medium in the presence of 17beta-Deacetyltanghinin (DAT). The cells at different time points after release were analyzed by follow cytometry. Ayn. means asynchronous cells. Untreated cells and cells treated with the solvent DMSO could complete M, G1 and S phases after release (FIG. 7A). […] Similarly, cells released from the Mimosine (MMS) arrest (at the G1/S transition; FIG. 7B) or Hydroxyurea (HU) arrest (in early S phase; FIG. 7C) could not finish S phase in the presence of 17beta-Deacetyltanghinin.
In FIG. 8A, flow cytometry was performed to analyze the DNA contents in HepG2 and L-02 cells treated with 17beta-Deacetyltanghinin at various concentrations for 24 hrs. In FIG. 8B, Hela cells were treated with 17beta-Deacetyltanghinin for 24 hrs and labeled with Annexin V-Cy3 (Arm. Cy3) for 20 min. Mitoxantrone (MTX), a clinical anticancer drug that can induce apoptosis in cancer cells, was used as a positive control.

[2] = target: T1, hMcm2 and hMcm6 (Homo sapiens, UniProt P49736+Q14566); assay: Immunostaining / GFP fluorescence microscopy of MCM nuclear localization in HeLa cells; format: cell-based; settings: 24 hrs
T1 construct: the endogenous hMcm2 and hMcm6 were detected by specific antibodies against these proteins; endogenous in cells; host or cells: HeLa
T1 sequence (P49736 2-904): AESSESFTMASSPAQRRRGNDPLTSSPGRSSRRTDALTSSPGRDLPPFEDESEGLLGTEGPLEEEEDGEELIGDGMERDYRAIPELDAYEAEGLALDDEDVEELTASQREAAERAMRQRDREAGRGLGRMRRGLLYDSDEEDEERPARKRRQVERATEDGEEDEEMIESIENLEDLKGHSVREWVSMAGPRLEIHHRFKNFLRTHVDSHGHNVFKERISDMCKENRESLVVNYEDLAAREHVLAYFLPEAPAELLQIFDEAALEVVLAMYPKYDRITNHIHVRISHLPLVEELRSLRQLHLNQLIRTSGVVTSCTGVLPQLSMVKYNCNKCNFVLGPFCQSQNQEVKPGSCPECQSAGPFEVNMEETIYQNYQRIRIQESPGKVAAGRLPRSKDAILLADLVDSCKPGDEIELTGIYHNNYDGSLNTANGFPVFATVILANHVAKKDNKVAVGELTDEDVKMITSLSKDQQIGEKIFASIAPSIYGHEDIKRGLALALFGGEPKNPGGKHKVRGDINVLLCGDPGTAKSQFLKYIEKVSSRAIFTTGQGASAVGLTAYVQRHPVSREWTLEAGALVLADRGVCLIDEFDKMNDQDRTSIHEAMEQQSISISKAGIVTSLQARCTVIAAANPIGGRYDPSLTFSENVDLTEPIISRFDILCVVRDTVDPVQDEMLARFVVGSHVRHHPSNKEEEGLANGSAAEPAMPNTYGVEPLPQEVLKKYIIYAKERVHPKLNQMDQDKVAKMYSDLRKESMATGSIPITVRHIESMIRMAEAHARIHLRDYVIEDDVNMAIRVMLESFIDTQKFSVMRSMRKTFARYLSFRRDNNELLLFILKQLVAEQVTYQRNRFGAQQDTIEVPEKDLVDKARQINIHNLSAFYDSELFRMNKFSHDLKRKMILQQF
T1 sequence (Q14566 whole entry): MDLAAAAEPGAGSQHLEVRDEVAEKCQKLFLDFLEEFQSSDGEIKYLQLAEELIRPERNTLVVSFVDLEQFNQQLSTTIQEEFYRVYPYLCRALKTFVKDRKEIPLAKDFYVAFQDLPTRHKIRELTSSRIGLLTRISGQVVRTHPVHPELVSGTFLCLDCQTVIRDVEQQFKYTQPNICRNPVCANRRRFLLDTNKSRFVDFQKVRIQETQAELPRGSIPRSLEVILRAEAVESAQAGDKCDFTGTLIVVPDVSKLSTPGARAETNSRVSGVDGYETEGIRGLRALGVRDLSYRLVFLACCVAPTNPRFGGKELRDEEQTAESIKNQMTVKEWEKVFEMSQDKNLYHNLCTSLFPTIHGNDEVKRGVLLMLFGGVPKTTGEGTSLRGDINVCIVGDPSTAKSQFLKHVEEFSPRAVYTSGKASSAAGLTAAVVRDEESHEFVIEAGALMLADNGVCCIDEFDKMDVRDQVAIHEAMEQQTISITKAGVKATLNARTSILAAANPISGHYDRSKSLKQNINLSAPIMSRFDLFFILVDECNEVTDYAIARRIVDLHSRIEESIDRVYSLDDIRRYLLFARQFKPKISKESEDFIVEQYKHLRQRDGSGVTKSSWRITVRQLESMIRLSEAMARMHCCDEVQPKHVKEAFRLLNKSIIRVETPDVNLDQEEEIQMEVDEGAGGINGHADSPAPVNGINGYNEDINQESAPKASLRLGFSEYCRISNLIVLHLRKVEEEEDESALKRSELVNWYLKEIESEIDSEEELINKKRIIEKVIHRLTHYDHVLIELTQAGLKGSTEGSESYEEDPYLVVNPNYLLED
Method: To study the effect of the anticancer compounds on the interaction between hMcm2 and hMcm6 in the cells, immunostaining was performed to detect the sub-cellular localization of the proteins. HeLa cells grown on cover slips (coated with poly-D-lysine) with or without drug treatment were fixed with 4% PFA in PBS at room temperature for 20 min. After permeabilization with 0.1% Triton X-100 and 1% BSA in PBS for 20 min, cells were blocked with 1% BSA and then incubated with rabbit anti-hMcm6 (Santa Cruz; 1:500) and mouse anti-hMcm2 (Becton Dickinson; 1:500) primary antibodies at room temperature for 1 hr. Cells were then incubated with Alexa Fluor 488-conjugated donkey […] antibody and Alexa Fluor 594-conjugated donkey anti-mouse antibody (Invitrogen; 1:500) at room temperature for 1 hr. Three washes with PBS were performed after each round of antibody incubation. Cells were then incubated with Hochest 33852 (Sigma Chemical Company; 1 μg/ml) at room temperature for 15 min for nuclear staining and washed with PBS three times again. At last, cells were mounted and observed under the fluorescence microscope (Nikon TE2000E).
Because pair-wise interactions among the MCM subunits are required for the MCM heterohexameric ring structure, which is essential for their import into the nucleus, disruption of the interaction between hMcm2 and hMcm6 should destroy the hexamer and result in failure of nuclear localization of MCM proteins. To test this, we employed both indirect fluorescence microscopy (immunostaining) using antibodies against the endogenous MCM proteins and direct fluorescence microscopy after transfection with plasmids to express hMcm2-GFP and hMcm6-GFP in the cells.
In immunostaining, HeLa cells were treated by 17beta-Deacetyltanghinin for 24 hrs, and the endogenous hMcm2 and hMcm6 were detected by specific antibodies against these proteins. […] In direct fluorescence microscopy, HeLa cells expressing hMcm2-GFP and hMcm6-GFP were treated with 17beta-Deacetyltanghinin for 36 hrs starting at 4 hrs post-transfection with the plasmids expressing hMcm2-GFP and hMcm6-GFP.

[3] = test system: cancer cell lines (HepG2, Hep3B, HeLa, HK1, C666-1); assay: cells; format: cell-based, human; settings: for anti-proliferative (anticancer) activity, in words: 48 hrs
Method: (§1) For testing the anti-proliferation activity of the compounds in human cell lines and calculation of IC50, cancer cells including HepG2, HeLa and Hep3B (4×10^5 cells/well) and normal L-02 cells (5×10^5 cells/well) were respectively seeded in 96-well plates in 100 μl of culture medium and incubated for about 12 hrs at 37° C. The cells were treated with two-fold serial dilutions of the drugs for 48 hrs. Medium was removed and 100 μl of culture medium containing 1 μM WST-1 (water soluble tetrazolium-1) were added to each well. The cells were incubated for 2 hrs, and absorbance at 405 nm (reference at 630 nm) was then measured. To construct the standard curve of the relationship between cell number and absorbance at OD405, serial dilutions of cells with known cell numbers were seeded and incubated for six hrs before being measured by the WST-1 assay. The cell viability was expressed as the ratio of the number of live cells treated with a candidate compound versus that of the DMSO-treated cells.
(§2) To further test 17beta-Deacetyltanghinin and to determine the IC50 values, besides L-02 and HepG2, Hep3B (another liver cancer cell line which is p53-negative), HeLa (cervical cancer cell line), HK1 and C666-1 (nasopharyngeal carcinoma) cells and a hTert-immortalized normal nasopharyngeal cell line (NP460) were treated by 17beta-Deacetyltanghinin for 48 hrs, and the relative cell vabilities were determined by WST-1 assay (FIG. 2B, C).

[4] = target: T2, hMcm2-hMcm6 interaction (MCM complex) (Homo sapiens, UniProt P49736+Q14566); assay: Co-immunoprecipitation of MCM subunits in HeLa cell extracts; format: cell-based; settings: asynchronous HeLa cells, whole cell extracts
T2 construct: endogenous in cells; host or cells: HeLa
T2 sequence (P49736 2-904 limits assumed): as the sequence (P49736 2-904) above
T2 sequence (Q14566 whole entry): as the sequence (Q14566 whole entry) above
Method: To test if 17beta-Deacetyltanghinin targets hMcm2 and hMcm6 proteins in human cells, possible co-immunoprecipitation (co-IP) of the two proteins was tested in human cell extracts from cells treated with 17beta-Deacetyltanghinin. In FIG. 3, asynchronous HeLa cells were treated with DMSO or 17beta-Deacetyltanghinin (DAT) (FIG. 3A), or with DMSO, 17beta-Neriifolin (NRF) or 17beta-Deacetyltanghinin diol (Diol) (FIG. 3B), and whole cell extracts were prepared and further incubated with the compound before being used for co-IP in the presence of the compound. The immunoprecipitates were then immunoblotted with anti-hMcm 6, anti-hMcm2, anti-hMcm4 and anti-hMcm7 antibodies.

[5] = test system: L-02 cells (normal human liver cells); assay: in vitro; settings: compound 0.5 ∝g/ml; WST-1
Method: as §1
(§3) A pair of human cell lines, L-02 (normal liver cells) and HepG2 (a liver cancer cell line) was treated with 17beta-Deacetyltanghinin for 48 hrs. […] In FIG. 2B-H, quantification of viable cell numbers was carried out using WST-1 (Water-soluble tetrazolium-1) assay.
as §2

[6] = test system: HepG2 cells (hepatocellular carcinoma); settings: compound 0.5 ∝g/ml; WST-1
[7] = in vitro; settings: human
Method: as §1, §3, §2

[8] = In vivo toxicity assessment in nude mice; settings: 10 mg/kg per injection, tumor-bearing nude mice
Method: (§4) A further set of animal experiments was then conducted with a longer period of time, in which fifteen drug injections at 5.0 mg/kg were performed one week after tumor inoculation when the tumor size reached 0.05-0.1 cm^3. In FIG. 10B, drug injections and tumor size measurements were performed on the days represented by the data points, and the photographs in FIG. 10C were taken on day 20.
In FIG. 11, S refers to solvent-treated mice without tumor inoculation; S+T represents solvent-treated mice with tumor inoculation; DAT refers to 17beta-Deacetyltanghinin-treated mice without tumor inoculation; DAT+T represents 17beta-Deacetyltanghinin-treated mice with tumor inoculation; and P+T refers to Paelitaxel-treated mice with tumor inoculation. Three out of the five mice with intermediate tumor size in each group were selected for physiological parameters examination. The tumors (T) and internal organs including liver (L), heart (H) and kidney (K) were dissected from each mouse.
Furthermore, blood from each mouse was also collected for the tests of the ALT (alanine aminotransferase) and LDH (Lactate dehydrogenase) activities. […] The results of both tests were represented as the values of differently treated mice relative to the untreated ones.

[9] = test system: HeLa cells xenograft tumors; assay: In vivo anticancer activity, nude mice xenograft model; settings: 10 mg/kg per injection, first 10 days
Method: In vivo anticancer activity tests were carried out in the nude mice xenograft model by inoculating nude mice with HeLa cells in both the left and right flanks. After random grouping, nude mice were treated intraperitoneally with 17beta-Deacetyltanghinin or the solvent (30% of propylene glycol in PBS). In the first test, 3 days after tumor inoculation when small tumors started to form, two groups of nude mice were treated on days 1-3 and 6-10 with 3.5 and 7.0 mg-drug/kg-body weight of 17beta-Deacetyltanghinin respectively, and another group of control mice were treated with the same volume of the solvent (FIG. 10A). In FIG. 10A, the tumor volume data represented by the small-size data point symbol linked with thin lines were obtained on the days when both measurement of tumor size and drug injections were performed, and the tumor volume data represented by the large-size data point symbol linked with thick lines were obtained on the days without drug injection. Each tumor size was average of ten tumors in five mice in each group.
as §4

17beta-Deacetyltanghinin diol
induction of apoptosis (sub-G1 population, flow cytometry) [1]: able to induce apoptosis of cancer cells
nuclear localization of endogenous hMcm2 and hMcm6 (immunostaining) [2]: weaker activity
anti-proliferative (anticancer) activity, in words ([3]; WST-1 assay): lower anticancer activity than 17beta-Deacetyltanghinin
disruption of hMcm2-hMcm6 interaction (co-IP) [4]: weaker activity

CO[C@H]1[C@H](O)[C@H](O[C@H]2CC[C@@]3(C)[C@@H](C2)C[C@@H]2O[C@]24[C@@H]3CC[C@]2(C)[C@H](C3=CC(=O)OC3)CC[C@]42O)O[C@@H](C)[C@@H]1O [17alpha-Deacetyltanghinin, reference compound]
L-02 cell viability (%) [5]: 100%
HepG2 cell viability (%) [6]: 97.2%
anti-proliferative (anticancer) activity, in words ([3]; WST-1 assay): little anti-proliferative activity

CO[C@H]1[C@H](O)[C@H](O[C@H]2CC[C@@]3(C)[C@H](CC[C@@H]4[C@@H]3CC[C@]3(C)[C@H](C5=CC(=O)OC5)CC[C@]43O)C2)O[C@@H](C)[C@@H]1O [17alpha-Neriifolin, reference compound]
L-02 cell viability (%) [5]: 100%
HepG2 cell viability (%) [6]: 100%
anti-proliferative (anticancer) activity, in words ([3]; WST-1 assay): little anti-proliferative activity

CO[C@H]1[C@H](O)[C@H](O[C@H]2CC[C@@]3(C)[C@H](CC[C@@H]4[C@@H]3CC[C@]3(C)[C@@H](C5=CC(=O)OC5)CC[C@]43O)C2)O[C@@H](C)[C@@H]1O [17beta-Neriifolin]
induction of apoptosis (sub-G1 population, flow cytometry) [1]: able to induce apoptosis of cancer cells
nuclear localization of endogenous hMcm2 and hMcm6 (immunostaining) [2]: as efficiently as 17beta-Deacetyltanghinin
disruption of hMcm2-hMcm6 interaction (co-IP) [4]: could also disrupt the hMcm2-hMcm6 interaction

C[C@]12CC[C@H](O)C[C@H]1CC[C@@H]1[C@@H]2CC[C@]2(C)[C@@H](c3ccc(=O)oc3)CC[C@]12O [Bufalin]
viability [7]: 37.2%
HepG2 cell viability (%) [6]: 13.7%

CC(=O)O[C@H]1[C@H]2O[C@]23[C@@H]2CC[C@@H]4C[C@@H](O)CC[C@]4(C)[C@H]2CC[C@]3(C)[C@H]1c1ccc(=O)oc1 [Cinobufagin]
viability [7]: 39.7%
HepG2 cell viability (%) [6]: 1.5%

CC(=O)O[C@H]1C(=O)[C@@]2(C)[C@H]([C@H](OC(=O)c3ccccc3)[C@]3(O)C[C@H](OC(=O)[C@H](O)[C@@H](NC(=O)c4ccccc4)c4ccccc4)C(C)=C1C3(C)C)[C@]1(OC(C)=O)CO[C@@H]1C[C@@H]2O [Paclitaxel, reference compound]
mortality from toxicity [8]: the mice died on day 10
selectivity between cancer and normal cells, in words [3]: did not show significant selectivity; also recorded: more toxic to normal liver cells than liver cancer cells
antitumor activity compared with 17beta-Deacetyltanghinin, in words [9]: much less antitumor activities

C[C@]12CC[C@H](O)C[C@H]1CC[C@@H]1[C@@H]2CC[C@]2(C)[C@@H](c3ccc(=O)oc3)C[C@H]3O[C@]132 [Resibufogenin]
viability [7]: 37.9%
HepG2 cell viability (%) [6]: 1.4%

COc1cc([C@@H]2c3cc4c(cc3[C@@H](O[C@@H]3O[C@@H]5CO[C@@H](C)O[C@H]5[C@H](O)[C@H]3O)[C@H]3COC(=O)[C@H]23)OCO4)cc(OC)c1OP(=O)(O)O [VP16, Etoposide phosphate]
selectivity between cancer and normal cells, in words ([3]; cancer vs normal cells, WST-1 assay): did not show significant selectivity
